# Assay results from PMC12040169 (PLOS Biology, 2025).
# “And” between values parts separate entries of the source, which are not always exact repeats. Equal entries are not always repeated.
# Tests used:
# [1] = in vitro; settings: human, hela cells, % viability
# [2] = tested on: HeLa; settings: bulk resorufin, single well, 28.5 h, 10 µM, Bulk resorufin fluorescence
# [3] = tested on: T1, CTL2-GFP (C. trachomatis L2/434/Bu, GFP-expressing); experiment: microbe, parasite or virus in culture; design: species or system HeLa; C. trachomatis growth in HeLa, dose-response, mean of bulk GFP fluorescence and imaged total inclusion area; settings: Chlamydia trachomatis, 28.5 h; mean of GFP and inclusion area
# T1 construct: L2/434/Bu, GFP-expressing
# Text: (§1) We screened a library of 36,785 small molecules displaying drug-like properties and covering a wide chemical space (Fig 1A and S2A Data). In this process, we also complemented the assay described above with an imaging-based readout (Fig 1B). After measurements of bulk GFP and resorufin fluorescence, cells were fixed, stained with the DNA dye Hoechst, and imaged at a high-content imaging platform to detect chlamydial inclusions (GFP) and host cell nuclei (Hoechst). The total area and number of inclusions in individual wells and the number of nuclei then served as additional proxies for chlamydial growth and host cell viability. […] MICs were calculated as described above.
# [4] = tested on: T1, CTL2-GFP (C. trachomatis L2/434/Bu, GFP-expressing); experiment: microbe, parasite or virus in culture; design: C. trachomatis growth in HeLa, dose-response, mean of bulk GFP fluorescence and imaged total inclusion area; settings: Chlamydia trachomatis, HeLa, 28.5 h; mean of GFP and inclusion area
# Text: as §1
# [5] = in vitro; design: Viability of infected HeLa host cells, resazurin conversion, bulk resorufin fluorescence relative to DMSO; settings: human, hela cells; bulk resorufin, mean of 3
smiles,measurement,setting,value
Cc1cc(CN2CC3CCCN3C[C@@H]2C)c(C)n1-c1ccccn1 (stereo partly shown) [CBK285431],"viability at 28.5 h, 10 µM",[1],87%
same,% viability,[2],98.1%
CC(C)n1cc(CN2CC3C[C@@H](O)CN3C[C@H]2C)c2ccccc21 (stereo partly shown) [CBK285437],"viability at 28.5 h, 10 µM",[1],107%
same,% viability,[2],88.8%
C[C@@H]1CN2CCCC2CN1Cc1cc(F)ccc1F (stereo partly shown) [CBK285444],"viability at 28.5 h, 10 µM",[1],104%
same,% viability,[2],94.9%
C[C@@H]1CN2CCCC2CN1Cc1ccc(F)c(F)c1 (stereo partly shown) [CBK285445],"viability at 28.5 h, 10 µM",[1],99.5%
same,% viability,[2],105%
CCn1ncc(CN2C[C@@H]3CCCN3C[C@@H]2CCSC)c1C [CBK285446],"viability at 28.5 h, 10 µM",[1],109%
same,% viability,[2],110%
Cc1cc(CN2CC3CCCN3C[C@H]2C)oc1C (stereo partly shown) [CBK285449],"viability at 28.5 h, 10 µM",[1],96.9%
same,% viability,[2],103%
CCn1cc(CN2C[C@@H]3CCCN3C[C@H]2CCSC)c(C)n1 [CBK285460],"viability at 28.5 h, 10 µM",[1],96.3%
same,% viability,[2],99.1%
COc1ccc(CC(=O)N2CCN(Cc3ccco3)C[C@H]2C)cc1 [CBK285483],"viability at 28.5 h, 10 µM",[1],96%
same,% viability,[2],104%
O=C(NC1CC1)[C@H]1C=CCN1S(=O)(=O)c1cccc(F)c1 [CBK285485],"viability at 28.5 h, 10 µM",[1],111%
same,% viability,[2],98.9%
O=C(CN1C(=O)[C@@H]2CCCN2c2ncccc21)NCc1ccccc1 [CBK286203],"viability at 28.5 h, 10 µM",[1],115%
same,% viability,[2],117%
O=C(CN1C(=O)[C@@H]2CCCN2C(=O)c2ccccc21)N1CCOCC1 [CBK286401],"viability at 28.5 h, 10 µM",[1],83.9%
same,% viability,[2],103%
Cc1cc2ncn(C3CC(=O)N(c4ccc(C(=O)O)cc4)C3=O)c2cc1C (stereo not shown) [CBK286586],"viability at 28.5 h, 10 µM",[1],89.4%
same,% viability,[2],92.4%
O=C(O)c1cc(-c2ccccc2)c2c(=O)[nH][nH]c2n1 [CBK286631],"viability at 28.5 h, 10 µM",[1],105%
same,% viability,[2],102% and 88.2%
O=C(O)c1cccc2c1C(=O)N(Cc1ccccc1)C2 [CBK286872],"viability at 28.5 h, 10 µM",[1],91%
same,% viability,[2],89.1%
NS(=O)(=O)c1ccc2nc(NC(=O)c3ccc(Cl)s3)sc2c1 [CBK287320],"viability at 28.5 h, 10 µM",[1],108%
same,% viability,[2],89.6%
Cc1ccc(-c2csc3c(=O)[nH]c(N4CCC5(CC4)OCCO5)nc23)cc1 [CBK288034],"viability at 28.5 h, 10 µM",[1],83.9%
same,% viability,[2],92.2%
NCCc1c(C23CC4CC(CC(C4)C2)C3)[nH][nH]c1=O [CBK288081],"viability at 28.5 h, 10 µM",[1],86.5%
same,% viability,[2],106%
O=C(CC1C(=O)NC(=O)N1Cc1ccccc1)NCc1ccccc1 (stereo not shown) [CBK288083],"viability at 28.5 h, 10 µM",[1],87.8%
same,% viability,[2],94.6%
Cc1ccc(Nc2cc(N3CCC(C(=O)O)CC3)ncn2)cc1 [CBK288121],"viability at 28.5 h, 10 µM",[1],104%
same,% viability,[2],91.3%
CN1CCc2[nH]c(=S)c(C#N)c(-c3ccccc3)c2C1 [CBK288354],"viability at 28.5 h, 10 µM",[1],96.5%
same,% viability,[2],87.1%
C/C(=N\O)c1cc2cc(Cl)cc(Cl)c2oc1=O [CBK288516],"viability at 28.5 h, 10 µM",[1],84.5%
same,% viability,[2],90.6%
COc1ccccc1N1C(=O)CC(=O)N=C1S [CBK288517],"viability at 28.5 h, 10 µM",[1],89.5%
same,% viability,[2],89.3%
Cc1cc(CNC(=S)NC2CCCCC2)nn1C [CBK288519],"viability at 28.5 h, 10 µM",[1],82.5%
same,% viability,[2],94%
COCCn1c(S)nc(=O)c2cc(C)cnc21 [CBK288520],"viability at 28.5 h, 10 µM",[1],88%
same,% viability,[2],92.2%
O=C1CSC(c2ccc(Br)cc2)N1O (stereo not shown) [CBK288521],"viability at 28.5 h, 10 µM",[1],89%
same,% viability,[2],97.7%
CCOc1ccc(CCN2C(=O)CN=C2S)cc1OCC [CBK288528],"viability at 28.5 h, 10 µM",[1],103%
same,% viability,[2],98.3%
Cc1ccc(Cn2cc(Br)c(NC(=O)C(=O)O)n2)cc1 [CBK288529],"viability at 28.5 h, 10 µM",[1],96.9%
same,% viability,[2],88.4%
COc1ccc(C(NC(=O)Cc2cn3ccsc3n2)C2CC(O)C2)cn1 (stereo not shown) [CBK306910],"viability at 28.5 h, 10 µM",[1],82.2%
same,% viability,[2],97%
COc1nccc(NC(c2cnn(C)c2)[C@H]2C[C@H](O)C2)c1C#N (stereo partly shown) [CBK307283],"viability at 28.5 h, 10 µM",[1],94%
same,% viability,[2],91.1%
OCCNc1nc(Nc2ccc(Br)cc2)nc2ccccc12 [c17e],MIC,[3],3.14 µM
same,IC50,[4],1.24 µM
same,"viability at 28.5 h, 0.000416667 µM",[5],95.2%
same,"viability at 28.5 h, 0.00125 µM",[5],87.1%
same,"viability at 28.5 h, 0.00375 µM",[5],86.4%
same,"viability at 28.5 h, 0.0123333 µM",[5],86.4%
same,"viability at 28.5 h, 0.037 µM",[5],88.2%
same,"viability at 28.5 h, 0.111 µM",[5],83.5%
same,"viability at 28.5 h, 0.333 µM",[5],88.9%
same,"viability at 28.5 h, 1 µM",[5],86%
same,"viability at 28.5 h, 3 µM",[5],84.9%
same,"viability at 28.5 h, 10 µM",[5],81.2%
same,"viability at 28.5 h, 30 µM",[5],71.2%
COCCNc1nc2c(c(N3CCCCCC3)n1)CCNCC2 [c18e],MIC,[3],1.94 µM
same,IC50,[4],1.27 µM
same,"viability at 28.5 h, 0.000416667 µM",[5],113%
same,"viability at 28.5 h, 0.00125 µM",[5],109%
same,"viability at 28.5 h, 0.00375 µM",[5],109%
same,"viability at 28.5 h, 0.0123333 µM",[5],108%
same,"viability at 28.5 h, 0.037 µM",[5],110%
same,"viability at 28.5 h, 0.111 µM",[5],106%
same,"viability at 28.5 h, 0.333 µM",[5],107%
same,"viability at 28.5 h, 1 µM",[5],102%
same,"viability at 28.5 h, 3 µM",[5],108%
same,"viability at 28.5 h, 10 µM",[5],101%
same,"viability at 28.5 h, 30 µM",[5],103%
CC1=C(C)C(=NNC(N)=S)C(C)=C(C)C1=NNC(N)=S [c19e],MIC,[3],3.58 µM
same,IC50,[4],1.39 µM
same,"viability at 28.5 h, 0.000416667 µM",[5],101%
same,"viability at 28.5 h, 0.00125 µM",[5],103%
same,"viability at 28.5 h, 0.00375 µM",[5],109%
same,"viability at 28.5 h, 0.0123333 µM",[5],101%
same,"viability at 28.5 h, 0.037 µM",[5],101%
same,"viability at 28.5 h, 0.111 µM",[5],107%
same,"viability at 28.5 h, 0.333 µM",[5],104%
same,"viability at 28.5 h, 1 µM",[5],103%
same,"viability at 28.5 h, 3 µM",[5],107%
same,"viability at 28.5 h, 10 µM",[5],109%
same,"viability at 28.5 h, 30 µM",[5],114%
Cc1noc(-c2ccc3c(c2O)OCCO3)c1-c1ccc(Cl)cc1 [c20e],MIC,[3],2.69 µM
same,IC50,[4],1.39 µM
same,"viability at 28.5 h, 0.000416667 µM",[5],99.7%
same,"viability at 28.5 h, 0.00125 µM",[5],97%
same,"viability at 28.5 h, 0.00375 µM",[5],93.1%
same,"viability at 28.5 h, 0.0123333 µM",[5],91.8%
same,"viability at 28.5 h, 0.037 µM",[5],94.3%
same,"viability at 28.5 h, 0.111 µM",[5],86.5%
same,"viability at 28.5 h, 0.333 µM",[5],88.7%
same,"viability at 28.5 h, 1 µM",[5],86.1%
same,"viability at 28.5 h, 3 µM",[5],83.4%
same,"viability at 28.5 h, 10 µM",[5],85.9%
same,"viability at 28.5 h, 30 µM",[5],75.6%
Fc1cccc(F)c1OCCOc1nc(N2CCNCC2)ccc1C(F)(F)F [c21e],MIC,[3],8.28 µM
same,IC50,[4],1.7 µM
same,"viability at 28.5 h, 0.000416667 µM",[5],85.4%
same,"viability at 28.5 h, 0.00125 µM",[5],87.7%
same,"viability at 28.5 h, 0.00375 µM",[5],84%
same,"viability at 28.5 h, 0.0123333 µM",[5],87.6%
same,"viability at 28.5 h, 0.037 µM",[5],84.7%
same,"viability at 28.5 h, 0.111 µM",[5],89.9%
same,"viability at 28.5 h, 0.333 µM",[5],90.4%
same,"viability at 28.5 h, 1 µM",[5],93.9%
same,"viability at 28.5 h, 3 µM",[5],87.9%
same,"viability at 28.5 h, 10 µM",[5],91.3%
same,"viability at 28.5 h, 30 µM",[5],0%
O=[N+]([O-])c1ccc2[nH]c3c(c2c1)CCCC3NC1CCN(CCc2ccccc2)CC1 (stereo not shown) [c23e],MIC,[3],4 µM
same,IC50,[4],2.18 µM
same,"viability at 28.5 h, 0.000416667 µM",[5],96.2%
same,"viability at 28.5 h, 0.00125 µM",[5],90.3%
same,"viability at 28.5 h, 0.00375 µM",[5],91.9%
same,"viability at 28.5 h, 0.0123333 µM",[5],88%
same,"viability at 28.5 h, 0.037 µM",[5],86.6%
same,"viability at 28.5 h, 0.111 µM",[5],87.4%
same,"viability at 28.5 h, 0.333 µM",[5],90.5%
same,"viability at 28.5 h, 1 µM",[5],83.9%
same,"viability at 28.5 h, 3 µM",[5],93.2%
same,"viability at 28.5 h, 10 µM",[5],76%
same,"viability at 28.5 h, 30 µM",[5],6.18%
